Type in all cases: functional
Experiment [1] concerns Rattus norvegicus. Description: In vivo toxicity against Pneumocystis carinii in immunosuppressed rats at a dose of 22 umol/kg/day administered by tail vein injection.
Experiment [2] concerns Rattus norvegicus. Put plainly: Percent salinte-treated controls were evaluated against Pneumocystis carinii in immunosuppressed rats at a dose of 22 umol/kg/day administered by tail vein injection.
Experiment [3] relates to Rattus norvegicus. Put plainly: Percent salinte-treated controls were evaluated against Pneumocystis carinii in immunosuppressed rats at a dose of 33 umol/kg/day administered orally.
Experiment [4] deals with Rattus norvegicus. Description: In vivo toxicity against Pneumocystis carinii in immunosuppressed rats at a dose of 33 umol/kg/day administered orally.
The subject of experiment [5] is Rattus norvegicus. Description: In vivo toxicity against Pneumocystis carinii in immunosuppressed rats at a dose of 11 umol/kg/day administered orally.
The subject of experiment [6] is Rattus norvegicus. Put plainly: Percent salinte-treated controls were evaluated against Pneumocystis carinii in immunosuppressed rats at a dose of 11 umol/kg/day administered by tail vein injection.
Experiment [7] relates to Rattus norvegicus. Description: Percent salinte-treated controls were evaluated against Pneumocystis carinii in immunosuppressed rats at a dose of 0.3 umol/kg/day administered by tail vein injection.
For experiment [8], the system named is Rattus norvegicus. Put plainly: In vivo toxicity against Pneumocystis carinii in immunosuppressed rats at a dose of 0.3 umol/kg/day administered by tail vein injection.
For experiment [9], the system named is Rattus norvegicus. Description: In vivo toxicity against Pneumocystis carinii in immunosuppressed rats at a dose of 5.5 umol/kg/day administered orally.
The subject of experiment [10] is Rattus norvegicus. Put plainly: In vivo toxicity against Pneumocystis carinii in immunosuppressed rats at a dose of 2.7 umol/kg/day administered by tail vein injection.
In experiment [11] the test system is Rattus norvegicus. Description: In vivo toxicity against Pneumocystis carinii in immunosuppressed rats at a dose of 11 umol/kg/day administered by tail vein injection.
Experiment [12] relates to Rattus norvegicus. Put plainly: Percent salinte-treated controls were evaluated against Pneumocystis carinii in immunosuppressed rats at a dose of 11 umol/kg/day administered orally.
The test system of experiment [13] is Rattus norvegicus. Put plainly: Percent salinte-treated controls were evaluated against Pneumocystis carinii in immunosuppressed rats at a dose of 5.5 umol/kg/day administered by tail vein injection.
The subject of experiment [14] is Rattus norvegicus. Description: Percent salinte-treated controls were evaluated against Pneumocystis carinii in immunosuppressed rats at a dose of 5.5 umol/kg/day administered orally.
Experiment [15] relates to Rattus norvegicus. Description: In vivo toxicity against Pneumocystis carinii in immunosuppressed rats at a dose of 5.5 umol/kg/day administered by tail vein injection.
Experiment [16] relates to Rattus norvegicus. Description: Percent salinte-treated controls were evaluated against Pneumocystis carinii in immunosuppressed rats at a dose of 2.7 umol/kg/day administered by tail vein injection.
Experiment [17] has as its system Rattus norvegicus. Put plainly: In vivo toxicity against Pneumocystis carinii in immunosuppressed rats at a dose of 66.3 umol/kg/day administered orally.
Experiment [18] has as its system Rattus norvegicus. Put plainly: Percent salinte-treated controls were evaluated against Pneumocystis carinii in immunosuppressed rats at a dose of 0.03 umol/kg/day administered by tail vein injection.
Experiment [19] has as its system Rattus norvegicus. Description: In vivo toxicity against Pneumocystis carinii in immunosuppressed rats at a dose of 13.3 umol/kg/day administered by tail vein injection.
The subject of experiment [20] is Rattus norvegicus. Put plainly: In vivo toxicity against Pneumocystis carinii in immunosuppressed rats at a dose of 0.03 umol/kg/day administered by tail vein injection.
Experiment [21] has as its system Rattus norvegicus. Description: In vivo toxicity against Pneumocystis carinii in immunosuppressed rats at a dose of 26.6 umol/kg/day administered by tail vein injection.
In experiment [22] the test system is Rattus norvegicus. Put plainly: Percent salinte-treated controls were evaluated against Pneumocystis carinii in immunosuppressed rats at a dose of 66.3 umol/kg/day administered orally.
Experiment [23] relates to Rattus norvegicus. Put plainly: Percent salinte-treated controls were evaluated against Pneumocystis carinii in immunosuppressed rats at a dose of 39.8 umol/kg/day administered orally.
The subject of experiment [24] is Rattus norvegicus. Description: Percent salinte-treated controls were evaluated against Pneumocystis carinii in immunosuppressed rats at a dose of 13.3 umol/kg/day administered by tail vein injection; Not available.
In experiment [25] the test system is Rattus norvegicus. Put plainly: In vivo toxicity against Pneumocystis carinii in immunosuppressed rats at a dose of 39.8 umol/kg/day administered orally.
Experiment [26] has as its system Rattus norvegicus. Description: In vivo toxicity against Pneumocystis carinii in immunosuppressed rats at a dose of 22 umol/kg/day administered orally.
The subject of experiment [27] is Rattus norvegicus. Description: Percent salinte-treated controls were evaluated against Pneumocystis carinii in immunosuppressed rats at a dose of 22 umol/kg/day administered orally.

Take `CCONC(=N)c1ccc(-c2ccc(-c3ccc(C(=N)NOCC)cc3)o2)cc1`: the values for the Toxicity with Rattus norvegicus [1] and with Rattus norvegicus [4] were 1 and 0, respectively. In addition, the Saline control in the experiment with Rattus norvegicus [2] is given as 104.7%; in the experiment on Rattus norvegicus [3] it was 121.5%.
As for `N=C(NO)c1ccc(-c2ccc(-c3ccc(/C(N)=N\O)cc3)o2)cc1`, the Toxicity is given as 1 with Rattus norvegicus [1]; 0 in the experiment with Rattus norvegicus [5]; 0 in the experiment on Rattus norvegicus [8]; 0 in the experiment on Rattus norvegicus [9]; 0 with Rattus norvegicus [10]; 1 in the experiment with Rattus norvegicus [11]. Moreover, the results for the Toxicity with Rattus norvegicus [4] and in the experiment on Rattus norvegicus [15] were 0 and 1, respectively. Also, the Saline control worked out at 1.37% with Rattus norvegicus [6]; 0.67% with Rattus norvegicus [2]; 203.6% in the experiment with Rattus norvegicus [7]; 3.1% in the experiment with Rattus norvegicus [3]; 197.6% in the experiment on Rattus norvegicus [12]; 42.3% with Rattus norvegicus [13]. The Saline control in the experiment on Rattus norvegicus [14] is on record as 127%; in the experiment with Rattus norvegicus [16], 54.4%.
On to `N=C(N)c1ccc(-c2ccc(-c3ccc(C(=N)N)cc3)o2)cc1` [FURAMIDINE], for which the Toxicity is 0 in the experiment with Rattus norvegicus [17]; 0 in the experiment with Rattus norvegicus [19]; 0 with Rattus norvegicus [20]; 1 in the experiment on Rattus norvegicus [21]; 0 with Rattus norvegicus [8]; 0 in the experiment on Rattus norvegicus [10]. Moreover, in the experiment on Rattus norvegicus [25], the Toxicity is recorded as 0. In addition, the Saline control is on record as 26.3% in the experiment on Rattus norvegicus [18]; 6.92% in the experiment with Rattus norvegicus [7]; 25.2% with Rattus norvegicus [22]; 42.3% in the experiment on Rattus norvegicus [23]; 0.79% with Rattus norvegicus [24]; 7.26% with Rattus norvegicus [16].
In the case of `CONC(=N)c1ccc(-c2ccc(-c3ccc(C(=N)NOC)cc3)o2)cc1` [PAFURAMIDINE], the Toxicity in the experiment on Rattus norvegicus [1], in the experiment on Rattus norvegicus [26], in the experiment with Rattus norvegicus [5], in the experiment with Rattus norvegicus [9] and with Rattus norvegicus [4] was 0 throughout. Besides, the Saline control worked out at 12% with Rattus norvegicus [27]; 14.3% in the experiment on Rattus norvegicus [2]; 1.82% in the experiment on Rattus norvegicus [3]; 34.7% with Rattus norvegicus [12]; 264.2% in the experiment with Rattus norvegicus [14].
